Results: EP0311632B1, “SURFACE ACTIVE LACTAMS” (priority 1986, dated 1988)
Read-outs that look alike come from different tables or passages of the source. Marks after values point to notes of the source that are not given here.

Columns and labels:
[1] = Cloud point of 10% aqueous solutions; type: physicochemical; settings: 10% aqueous solution
Text: The higher the cloud point, the more soluble, i.e. hydrated, the surfactant.

[2] = Surface tension of aqueous solutions (Fisher Surface Tensiomat, ring tensiometer); type: physicochemical; settings: 25°C.
Protocol: Surface tension measurements in triplicate were made for each of the N-alkylpyrrolidone species listed below in Table 1, using a Fisher Surface Tensiomat (Model #21, Der Nouy Ring Tensionometer). Each experiment was carried out as follows.
Distilled water solutions at concentrations noted in Table 1 were prepared for each of the following surfactants in 100 ml glass flasks. The solutions were stirred for about 15 minutes until homogeneous solutions were obtained. The surface tensions of these solutions were then measured.

[3] = Surface activity parameters calculated from surface tension measurements (Gibbs adsorption equation); type: physicochemical; settings: for am: area of the molecule at the interface; for CMC: critical micelle concentration, calculated from surface tension data; for pC-20: negative logarithm of surfactant concentration required to lower surface tension by 20 dynes/cm
Protocol: The critical micelle concentration (CMC), the surface concentration at the liquid-air interface ( ? ), the area of the test molecule at the interface (am) and the effectiveness of adsorption at the interface (pC-20) were determined on the above surface tension data reported in Example XXI, Table 1.
More specifically, the CMC of the N-(n alkyl) pyrrolidones tested show a minimum (4.7 x 10⁻⁵) at the C₁₂ chain length. Using the empirical equation for n-lauryl (C₁₂) alcohol ethoxylate, log CCMC (= A)^1 (+ B)^1 n [formula] where A¹ = 4.4, B¹ = 0.046, and n = number of ethylene oxide at 23°C., the pyrrolidone ring would be expected to behave as 2 ethylene oxide units. […] The hydrophilic-lipophilic balance (HLB) of N-n-dodecyl pyrrolidone, based on the assumption that the pyrrolidone ring simulates 2-6 ethylene oxide units is 6.5 - 11 using the equation % ethylene oxide/5 - HLB.
The surface concentration ? , in moles per cm indicates the maximum surface concentration of surfactant, i.e. at equilibrium above the CMC, and is obtained by an estimation of a constant d γ /dc* from the surface tension vs. concentration. […] The mono disperse nature of the hydrophobe and hydrophile is believed to contribute to high surface concentrations by maximizing enthropy of packing. * d γ/dc = the change in surface tension with respect to the change in surfactant concentration.

[4] = Solubility of N-alkyl pyrrolidones, 10% by weight in various liquids; type: physicochemical; set-up: key to 10% PRODUCT SOLUBILITY: I: insoluble; PS: partially soluble (cloudy translucent); S: soluble, clear; *: Soluble with slight haze; **: Very slight precipitation; settings: for 10% PRODUCT SOLUBILITY: 25°C ± 1°C; for solubility in water: room temperature, 10% concentration, in words
Protocol: Separate 10% by weight solutions of N-alkyl-2-pyrrolidone in the following liquids were made up in 50 ml glass beakers and the solubilities at about 25°C. were noted and reported in following Table 9.

[5] = Viscosity (Brookfield Viscometer, LVT Model); type: physicochemical
Protocol: The viscosities in cps of the following surfactants at various concentration in distilled water were measured at about 25°C. using a Brookfield Viscometer (LVT Model).
The above viscosity of alkyl pyrrolidones and their aqueous solutions were obtained usinq a #2 spindle at a speed of 30 rpm, and a #2 spindle at a speed of 60 rpm respectively.

[6] = Titration of 10% dispersions with HCl to a clear solution (protonation); type: physicochemical; settings: clear solution after HCl titration
Text: Ten percent dispersions of the C₈ and C₁₀ pyrrolidones were titrated to a clear solution using HCl.
To obtain a rough figure for the protonation equilibrium constant, the equilibrium [octyl pyrrolidone] was taken at 5 x 10⁻³m.

[7] = pH of product, 10% in 50/50 isopropyl alcohol-water; type: physicochemical
Text: Into a stainless steel autoclave was introduced n-octylamine (2342 g) and butyrolactone (1704 g) in a mole ratio of about 1:1.1.

[8] = Density, heat of vaporization and solubility parameter; type: physicochemical
[9] = value starred: literature value; cited from earlier work
[10] = 0.001% solution in distilled water
[11] = 0.01% solution in distilled water
[12] = 0.1% solution in distilled water
[13] = 100%, about 25°C., #2 spindle 30 rpm
[14] = product as such, stated in description and preparation examples
[15] = 0.0001% solution in distilled water
[16] = 2% in distilled water, about 25°C., #2 spindle 60 rpm
[17] = 4% in distilled water, about 25°C., #2 spindle 60 rpm
[18] = 6% in distilled water, about 25°C., #2 spindle 60 rpm
[19] = 8% in distilled water, about 25°C., #2 spindle 60 rpm
[20] = 10% in distilled water, about 25°C., #2 spindle 60 rpm

Compound | Cloud Point [1] | Surface Tension of Aqueous Solutions [2, 10] [dynes/cm] | Surface Tension of Aqueous Solutions [2, 11] [dynes/cm] | Surface Tension of Aqueous Solutions [2, 12] [dynes/cm] | am [3] | CMC [3] [µM] | pC-20 [3] | 10% PRODUCT SOLUBILITY ([4]; Acetone) | 10% PRODUCT SOLUBILITY ([4]; Ethanol) | 10% PRODUCT SOLUBILITY ([4]; Heptane) | 10% PRODUCT SOLUBILITY ([4]; Paraffin Oil) | 10% PRODUCT SOLUBILITY ([4]; Perchloroethylene) | 10% PRODUCT SOLUBILITY ([4]; Stoddard Solvent) | 10% PRODUCT SOLUBILITY ([4]; Water) | 10% PRODUCT SOLUBILITY ([4]; Xylene) | solubility in water [4] | VISCOSITY [5, 13] [CPS] | VISCOSITY [5, 14] [cps] | pH [7] | other results
O=C1CCCN1C1CCCCC1 [N-cyclohexyl pyrrolidone, reference compound] | 55 °C |  |  |  |  |  |  |  |  |  |  |  |  |  |  |  |  |  |  | 
CCCCCCCCCCN1CCCC1=O [N-decyl-2-pyrrolidone] | 19 °C | 51.0 | 27.8 | 27.5 | 36.1 (Å)^2 | 440 | 4.51 | S | S | S | S | S | S | PS* | S | slightly soluble | 12.0 | 12 | 5.4 | Surface Tension of Aqueous Solutions ([2]; 1.0% solution in distilled water): 27.6 dynes/cm; Solution pH [6]: <0.1
CCCCCCCCCCCCN1CCCC1=O [N-dodecyl-2-pyrrolidone] | 15-19 °C | 29.9 | 27.6 | 26.7 | 36.9 (Å)^2 | 47 | 5.27 | S | S | S | PS | S | PS | S* | S | completely soluble | 17.0 | 17 | 7.3 | Cloud Point ([1]; listed as dodecyl): 15-19 °C; Cloud Point ([1]; listed as dodecyl pyrrolidone): 31-32 °C; Surface Tension of Aqueous Solutions [2, 15]: 55.4 dynes/cm; VISCOSITY [5, 16]: 6.5 CPS; VISCOSITY [5, 17]: 7.5 CPS; VISCOSITY [5, 18]: 12.5 CPS; VISCOSITY [5, 19]: 16.0 CPS; VISCOSITY [5, 20]: 20.0 CPS
CCCCCCCCN1CCCC1=O [N-octyl-2-pyrrolidone] | < 0 °C | 68.4 | 54.25 | 30.4 | 39.5 (Å)^2 |  | 3.20 | S | S | S | S | S | S** | I | S | insoluble | 8.0 | 8 | 6.5 | Solution pH [6]: 0.22
CCCCCCCCCCCCCCN1CCCC1=O [N-tetradecyl-2-pyrrolidone] | 33 °C | 30.4 | 26.5 | 26.4 | 53.6 (Å)^2 | 57 | 6.25 | S | S | S | S | S | S | S* | S | completely soluble | 20.0 | 2 | 5.9 | Cloud Point ([1]; listed as tetradecyl): 33 °C; Cloud Point ([1]; listed as tetradecyl pyrrolidone): 33-34 °C; Surface Tension of Aqueous Solutions [2, 15]: 47.5 dynes/cm; Γm ([3]; surface concentration at the liquid-air interface): 3.1 10^-10 mol/cm²; VISCOSITY [5, 16]: 24.5 CPS; VISCOSITY [5, 17]: 66.0 CPS; VISCOSITY [5, 18]: 96.0 CPS; VISCOSITY [5, 19]: 100.0 CPS; VISCOSITY [5, 20]: 145.0 CPS; Heat of Vaporizn. [8]: 19.7 k cal/mole; Solubility Parameter (δ) [8]: 7.8
CCCCCCCCCCCCCCCCN1CCCC1=O [hexadecyl, N-hexadecyl-2-pyrrolidone] | insoluble |  |  |  |  |  |  |  |  |  |  |  |  |  |  |  |  |  |  | 
CCCCCCCCCCCC[N+](C)(C)[O-] [lauryl dimethyl amine oxide, reference compound] |  |  |  |  | 59.3 (Å)^2 |  | 5.23 |  |  |  |  |  |  |  |  |  |  |  |  | CMC [9]: 2.1 x 10^-3* ml^-1
